Consider 1 compound from ChEMBL document CHEMBL1156113, “Synthesis of new sugar derivatives and evaluation of their antibacterial activities against Mycobacterium tuberculosis” (Bioorg Med Chem Lett, 2009).

Assay type in all cases: functional
The subject of assay [1] is Mycobacterium tuberculosis. Description: Antimycobacterial activity against multidrug-resistant Mycobacterium tuberculosis isolate N-5-2 by agar proportion method.
Assay [2] concerns Mycobacterium tuberculosis. Description: Antimycobacterial activity against multidrug-resistant Mycobacterium tuberculosis isolate Q-4-1 by agar proportion method.
For assay [3], the system named is Mycobacterium tuberculosis. Put plainly: Antimycobacterial activity against multidrug-resistant Mycobacterium tuberculosis isolate P-1-50 by agar proportion method.
Assay [4] relates to Mycobacterium tuberculosis. Description: Antimycobacterial activity against isoniazid, rifampicin-resistant Mycobacterium tuberculosis isolate J-1-19 by agar proportion method.
The test system of assay [5] is Mycobacterium tuberculosis. Description: Antimycobacterial activity against multidrug-resistant Mycobacterium tuberculosis isolate A-2-6 by agar proportion method.
Assay [6] has as its system Mycobacterium tuberculosis. Description: Antimycobacterial activity against multidrug-resistant Mycobacterium tuberculosis isolate P-4-11 by agar proportion method.
Assay [7] deals with Mycobacterium tuberculosis. Put plainly: Antimycobacterial activity against isoniazid, streptomycin-resistant Mycobacterium tuberculosis isolate A-4-25 by agar proportion method.
The subject of assay [8] is Mycobacterium tuberculosis. Description: Antimycobacterial activity against multidrug-resistant Mycobacterium tuberculosis isolate R-1-38 by agar proportion method.
The subject of assay [9] is Mycobacterium tuberculosis. Put plainly: Antimycobacterial activity against multidrug-resistant Mycobacterium tuberculosis isolate M-1-32 by agar proportion method.
For assay [10], the system named is Mycobacterium tuberculosis. Put plainly: Antimycobacterial activity against streptomycin-resistant Mycobacterium tuberculosis isolate A-4-8 by agar proportion method.
For assay [11], the system named is Mycobacterium tuberculosis. Put plainly: Antimycobacterial activity against isoniazid-resistant Mycobacterium tuberculosis isolate A-2-1 by agar proportion method.
The test system of assay [12] is Mycobacterium tuberculosis. Description: Antimycobacterial activity against multidrug-resistant Mycobacterium tuberculosis isolate U-4-6 by agar proportion method.
Assay [13] deals with Mycobacterium tuberculosis. Description: Antimycobacterial activity against multidrug-resistant Mycobacterium tuberculosis isolate U-2-15 by agar proportion method.
The test system of assay [14] is Mycobacterium tuberculosis. Description: Antimycobacterial activity against isoniazid, rifampicin-resistant Mycobacterium tuberculosis isolate A-2-3 by agar proportion method.
The subject of assay [15] is Mycobacterium tuberculosis. Put plainly: Antimycobacterial activity against multidrug-resistant Mycobacterium tuberculosis isolate K-3-6 by agar proportion method.
Assay [16] relates to Mycobacterium tuberculosis. Put plainly: Antimycobacterial activity against streptomycin-resistant Mycobacterium tuberculosis isolate A-3-47 by agar proportion method.
For assay [17], the system named is Mycobacterium tuberculosis. Put plainly: Antimycobacterial activity against rifampicin-resistant Mycobacterium tuberculosis isolate A-2-4 by agar proportion method.
The test system of assay [18] is Mycobacterium tuberculosis. Description: Antimycobacterial activity against multidrug-resistant Mycobacterium tuberculosis isolate N-4-11 by agar proportion method.
In assay [19] the test system is Mycobacterium tuberculosis. Description: Antimycobacterial activity against multidrug-resistant Mycobacterium tuberculosis isolate Z-1-4 by agar proportion method.

Values after ≈ are worked out from the molar mass of the structure shown.

In general, MIC refers to the least concentration at which growth counts as inhibited. For `CC(=O)N[C@@H]1[C@@H](O)[C@H](O)[C@@H](CO)O[C@H]1SC(=S)N(C)C`, the minimum inhibitory concentration (MIC) in [1] was 1.56 µg/mL (≈ 4.81 µM); in [2] it was 6.25 µg/mL (≈ 19.3 µM); in [3], 6.25 µg/mL (≈ 19.3 µM); in assay [4], 6.25 µg/mL (≈ 19.3 µM); in assay [5], 6.25 µg/mL (≈ 19.3 µM); in [6], 6.25 µg/mL (≈ 19.3 µM). Besides, the MIC in assay [7], in assay [8], in [9], in [10], in [11] and in assay [12] was 6.25 µg/mL (≈ 19.3 µM) each time. Besides, the MIC was found to be 3.12 µg/mL (≈ 9.62 µM) in assay [13]; 3.12 µg/mL (≈ 9.62 µM) in assay [14]; 6.25 µg/mL (≈ 19.3 µM) in assay [15]; 6.25 µg/mL (≈ 19.3 µM) in [16]; 6.25 µg/mL (≈ 19.3 µM) in [17]; 6.25 µg/mL (≈ 19.3 µM) in assay [18]. This compound showed an MIC in assay [19] of 6.25 µg/mL (≈ 19.3 µM).
